ChEMBL document CHEMBL4265880, “Discovery of 3-Cyano- N-(3-(1-isobutyrylpiperidin-4-yl)-1-methyl-4-(trifluoromethyl)-1 H-pyrrolo[2,3- b]pyridin-5-yl)benzamide: A Potent, Selective, and Orally Bioavailable Retinoic Acid Receptor-Related Orphan Receptor C2 Inverse Agonist” (J Med Chem, 2018)
Converted amounts (≈) assume the structure as drawn.

Key:
[1] = Lipophilicity, log D of the compound at pH 7.4 by RP-HPLC analysis; assay type: physicochemical; details: buffer
[2] = Apparent permeability in RRCK cells; assay type: ADME, cell-based, Canis lupus familiaris, MDCKII-LE; details: dog, MDCK
[3] = Oral bioavailability in Balb/c mouse at 30 mg/kg administered via spray-dried dispersion by LC-MS/MS analysis; assay type: ADME, organism-based; details: in vivo
[4] = Volume of distribution at steady state in Balb/c mouse at 1 mg/kg, iv or 30 mg/kg, po via gavage by LC-MS/MS analysis; assay type: ADME, organism-based; details: in vivo, read-out: Vdss
[5] = Thermodynamic solubility of the compound at pH 6.5; assay type: physicochemical; details: buffer, read-out: Therm_solubility
[6] = Volume of distribution at steady state in Beagle dog at 1 mg/kg, iv or 3 mg/kg, po via gavage by LC-MS/MS analysis; assay type: ADME, organism-based, Canis lupus familiaris; details: in vivo, read-out: Vdss
[7] = Oral bioavailability in Beagle dog at 3 mg/kg administered via spray-dried dispersion measured over 24 hrs by LC-MS/MS analysis; assay type: ADME, organism-based, Canis lupus familiaris; details: in vivo
[8] = Oral bioavailability in Wistar Han rat at 3 mg/kg administered via spray-dried dispersion by LC-MS/MS analysis; assay type: ADME, organism-based; details: in vivo
[9] = Volume of distribution at steady state in Wistar Han rat at 1 mg/kg, iv or 3 mg/kg, po via gavage by LC-MS/MS analysis; assay type: ADME, organism-based; details: in vivo, read-out: Vdss
[10] = Oral bioavailability in Wistar Han rat at 3 mg/kg administered as crystalline solid by LC-MS/MS analysis; assay type: ADME, organism-based; details: in vivo

Row | Compound | logD [1] | other results
1 | Cc1c(NC(=O)c2cccc(C#N)c2)cnc2c1c(C1CCN(C(=O)C(C)C)CC1)cn2C | 2 | 
2 | Cc1c(NC(=O)c2cccc(C#N)c2)cnc2c1c(C1CCN(C(=O)CC(C)C)CC1)cn2C | 2.5 | 
3 | CCC(=O)N1CCC(c2cn(C)c3ncc(NC(=O)c4cccc(C#N)c4)c(C)c23)CC1 | 2 | 
4 | Cc1c(NC(=O)c2ccc(Cl)c(C#N)c2)cnc2c1c(C1CCN(C(=O)C(C)C)CC1)cn2C | 3.6 | 
5 | CC(C)C(=O)N1CCC(c2cn(C)c3ncc(NC(=O)c4cccc(C#N)c4)c(C(F)(F)F)c23)CC1 | 3.7 | Papp [2]: 13.2 ×10⁻⁶ cm/s; bioavailability [3]: 30%; Vd [4]: 0.8 L/kg; solubility thermodynamic [5]: 1 µM (≈ 0.498 µg/mL); Vd [6]: 1.5 L/kg; bioavailability [7]: 73%; bioavailability [8]: 83%; Vd [9]: 1.4 L/kg; bioavailability [10]: 21%
6 | CC(=O)N1CCC(c2cn(C)c3ncc(NC(=O)c4cccc(C#N)c4)c(C)c23)CC1 | 1.6 | 
7 | Cc1cccc(F)c1C(=O)N1CCC(c2cn(C)c3ncc(NC(=O)c4cccc(C#N)c4)c(C)c23)CC1 | 3.1 | 
8 | CC(C)C(=O)N1CCC(c2cn(C)c3ncc(NC(=O)c4cccc(C#N)c4)c(C(C)C)c23)CC1 | 2.6 | 
9 | Cc1c(NC(=O)c2ccc(F)c(C#N)c2)cnc2c1c(C1CCN(C(=O)C(C)C)CC1)cn2C | 2.3 | 
10 | Cc1ccc(C(=O)Nc2cnc3c(c(C4CCN(C(=O)C(C)C)CC4)cn3C)c2C)cc1C#N | 2.3 | 
11 | COc1c(NC(=O)c2cccc(C#N)c2)cnc2c1c(C1CCN(C(=O)C(C)C)CC1)cn2C | 2 | 
12 | COc1ccc(C(=O)Nc2cnc3c(c(C4CCN(C(=O)C(C)C)CC4)cn3C)c2C)cc1C#N | 2.4 | 
13 | Cc1noc(C)c1C(=O)N1CCC(c2cn(C)c3ncc(NC(=O)c4cccc(C#N)c4)c(C)c23)CC1 | 2 | 

Now from value to compound, other results behind:

Row | logD [1] | Compound | other results
14 | 2.4 | Cc1c(NC(=O)c2cccc(C#N)c2)cnc2c1c(C1CCN(C(=O)CC3CC3)CC1)cn2C | 
15 | 3.8 | Cn1cc(C2CCN(C(=O)C3CCCC3)CC2)c2cc(NC(=O)c3cccc(C#N)c3)cnc21 | 
16 | 4.4 | Cn1cc(C2CCN(C(=O)C3CCCC3)CC2)c2cc(NC(=O)c3cccc(C#N)c3)ccc21 | 
17 | 4.2 | Cn1cc(C2CCN(C(=O)C3CCCC3)CC2)c2nc(NC(=O)c3cc(C#N)ccn3)ccc21 | 
18 | 2.3 | Cc1c(NC(=O)c2cccc(C#N)c2)cnc2c1c(C1CCN(C(=O)C3CC3)CC1)cn2C | 
19 | 1.6 | Cc1c(NC(=O)c2cccc(C#N)c2)cnc2c1c(C1CCN(C(=O)C3CCOC3)CC1)cn2C (centres undefined) | 
20 | 3.9 | Cc1c(NC(=O)c2cccc(C#N)c2)cnc2c1c(C1CCN(C(=O)C3CCCCC3)CC1)cn2C | 
21 | 2.9 | Cc1c(NC(=O)c2cccc(C#N)c2)cnc2c1c(C1CCN(C(=O)C3CCCC3)CC1)cn2C | 
22 | 3.7 | Cn1cc(C2CCN(C(=O)C3CCCC3)CC2)c2cc(NC(=O)c3cc(C#N)ccn3)cnc21 | 
23 | 4 | Cc1c(NC(=O)c2cccc(C#N)c2)ccc2c1c(C1CCN(C(=O)C3CCCC3)CC1)cn2C | 
24 | 2.6 | Cc1c(NC(=O)c2cccc(C#N)c2)cnc2c1c(C1CCN(C(=O)C3CCC3)CC1)cn2C | 
25 | 4.3 | Cn1cc(C2CCN(C(=O)C3CCCC3)CC2)c2cc(NC(=O)c3cc(C#N)ccn3)ccc21 | 
